Test results as given in publication PMC12523804, “Evaluation of molecular mechanisms of (Z)-3-(pentadec-10′-enyl)-catechol (litreol) and synthetic derivatives as inhibitors of human leukotriene biosynthesis” (Redox Biology, 2025).

Experiments:
5-LO [1] = molecular target: T1, 5-LO (Homo sapiens, UniProt P09917); experiment: cell-free 5-LO activity assay with purified human recombinant 5-LO; assay type: biochemical; set-up: made in house; details: for mechanism of 5-LO inhibition versus substrate AA: AA 2.5, 5, 10, 20, 40 and 80 μM; for mechanism of 5-LO inhibition versus substrate AA / AA concentration at which maximal inhibitory potency was reached: isolated 5-LO; for AA concentration at which maximal inhibitory potency was reached: varying AA
T1 sequence (P09917 1-674): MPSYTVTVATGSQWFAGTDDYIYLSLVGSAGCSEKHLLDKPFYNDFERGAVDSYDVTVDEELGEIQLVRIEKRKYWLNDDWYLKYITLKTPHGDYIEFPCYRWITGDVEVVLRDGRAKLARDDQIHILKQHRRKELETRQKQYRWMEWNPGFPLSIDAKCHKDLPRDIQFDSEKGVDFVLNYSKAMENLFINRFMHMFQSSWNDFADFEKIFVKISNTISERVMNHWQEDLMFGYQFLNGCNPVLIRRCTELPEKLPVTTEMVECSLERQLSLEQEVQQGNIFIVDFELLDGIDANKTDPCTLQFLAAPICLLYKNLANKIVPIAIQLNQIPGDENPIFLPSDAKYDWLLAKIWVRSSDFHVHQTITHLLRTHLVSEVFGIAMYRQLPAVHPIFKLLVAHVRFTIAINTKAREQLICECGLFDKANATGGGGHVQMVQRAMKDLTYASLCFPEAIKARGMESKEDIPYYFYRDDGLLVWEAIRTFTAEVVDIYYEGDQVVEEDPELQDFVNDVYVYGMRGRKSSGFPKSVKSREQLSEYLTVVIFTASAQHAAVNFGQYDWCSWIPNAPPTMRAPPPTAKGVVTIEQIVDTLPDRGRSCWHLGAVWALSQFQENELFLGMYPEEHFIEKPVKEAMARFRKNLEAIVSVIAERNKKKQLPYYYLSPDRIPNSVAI
Description: 5-LO was expressed in E. coli B121 (DE3) transformed with pT3- 5LO plasmid, and purification of 5-LO was performed as described previously. Briefly, E. coli was lysed in 50 mM tri-ethanolamine/HCl, pH 8.0, 5 mM EDTA, […] soybean trypsin inhibitor, 1 mM phenylmethanesulfonyl fluoride, 1 mM dithiothreitol and 1 mg/mL lysozyme and then sonified (3 × 15 s). The homogenate was then centrifuged at 40,000g for 20 min at 4°C. 5-LO in the supernatant was partially purified by affinity chromatography on an ATP-agarose column (Sigma-Aldrich). Semi-purified 5-LO was diluted in PBS containing EDTA (1 mM) and ATP (1 mM) and immediately used for 5-LO activity assays. Samples were pre-incubated with the test compounds or vehicle (0.1 % DMSO) for 10 min at 4°C. Samples were pre-warmed for 30 s at 37°C, and 2 mM CaCl2 plus the indicated concentrations of AA were added to start 5-LO product formation. The reaction was stopped after 10 min by addition of one volume of ice-cold methanol, and the formed metabolites were analyzed by HPLC. 5- LO products include the all-trans isomers of LTB4 as well as 5-HPETE and its corresponding alcohol 5-HETE.

5-LO [2] = system: 5-LO; set-up: method as in PMID 32220788; details: read-out: IC50 against 5-LO; cited from earlier work
5-LO/FLAP = molecular target: T2, 5-LO/FLAP (Homo sapiens, UniProt P09917); experiment: Subcellular localization of 5-LO and FLAP by immunofluorescence microscopy in HEK293 cells; assay type: cell-based; details: HEK293 cells expressing 5-LO and FLAP, 3 μM (Fig. 4D) or 10 μM (method)
T2 construct: expressed in transfected cells; host or cells: HEK-293, stably transfected
T2 sequence (P09917 1-674): T1 sequence (P09917 1-674)
Description: Subcellular localization of 5-LO and FLAP was analyzed by immunofluorescence (IF) microscopy. In brief, HEK-293 cells expressing 5-LO/FLAP were seeded onto acid-washed (50 % sulfuric acid) and poly-L-lysine (0.01 %)-coated glass coverslips and cultured for 48 h at 37 °C until ∼60 % confluency. Cells were pre-incubated with 10 μM of compounds or vehicle (0.1 % DMSO) for 10 min before stimulation with 2.5 μM A23187 for 20 min at 37 °C. After fixation with 4 % paraformaldehyde solution, followed by permeabilization by using 50 mM ammonium chloride and acetone (3 min, 4 °C), cells were incubated with 10 % non-immune goat serum blocking solution for 1 h. Then, cells were incubated over night with mouse monoclonal anti-5-LO antibody (1:100) and rabbit polyclonal anti-FLAP antibody ([…]). The coverslips were intensively washed with PBS before staining with the fluorophore-labeled secondary antibodies Alexa Fluor 488 goat anti-rabbit (1:500) and Alexa Fluor 555 goat anti-mouse (1:500) for 20 min in the dark. The coverslips were mounted on glass slides with Mowiol containing 2.5 % n-propyl gallate and 4,6-diamidin-2-phenylindol (DAPI; Invitrogen, Carlsbad, CA), a staining for nuclear DNA. Samples were analyzed by a Zeiss Axio-vert 200 M microscope, and a Plan Neofluar _ 100/1.30 Oil (DIC III) objective (Carl Zeiss, Jena, Germany). […]

intracellular Ca2+ = experiment: Intracellular Ca2+ measurements in PMNL (Fura-2); assay type: cell-based, human; details: 1 μM compound
Description: PMNL (10^7 x ml PG buffer) were pre-stained with Fura-2/AM (2 μM) for 45 min at 37 °C in the dark. After two washing steps, cells were resuspended in PG buffer containing 0.1 % BSA at a density of 5 × 10^6/mL. 100 μL of the cell suspension was transferred into a 96-well plate and pre-incubated for 10 min at 37 °C with compound or vehicle (1 % DMSO), and 2 min prior stimulation 1 mM CaCl2 was added, following addition of 0.1 μM fMLP or 2 μM ionomycin as a positive control for Ca^2+ influx. The signal was monitored in a thermally (37 °C) controlled NOVOstar microplate reader (BMG Labtechnologies GmbH, Offenburg, Germany) (emission at 510 nm, excitation at 340 nm (Ca^2+-bound Fura-2) and 380 nm (free Fura-2). After cell lysis with Triton X-100 the maximal fluorescence signals were monitored and after chelating Ca^2+ with 10 mM EDTA the minimal fluorescence signals. The concentration of Ca^2+ was calculated from the ratio of the signals at 340 and 380 nm according to Grynkiewicz G et al..

Question: With `CCCC/C=C\CCCCCCCCCc1cccc(O)c1O` [CI, (Z)-3-(pentadec-10′-enyl)-catechol] as the compound, how does the IC50 (5-LO [1]) read?
Answer: 60 ± 40 nM

Question: What about the “mechanism of 5-LO inhibition versus substrate AA” value (5-LO [1]) of the same compound?
Answer: excluding a substrate competitive mechanism

Question: And the “AA concentration at which maximal inhibitory potency was reached” value (5-LO [1])?
Answer: 20000 nM

Question: What about the IC50 (5-LO [2]) of the same compound?
Answer: 2090 nM

Question: What about the “A23187-induced 5-LO translocation / colocalization with FLAP” value (5-LO/FLAP) of the same compound?
Answer: able to block

Question: And the “intracellular Ca2+ concentrations” value (intracellular Ca2+)?
Answer: Neither CS nor CI caused significant changes

Question: With `CCCCCCCCCCCCCCCc1cccc(O)c1O` [CS, 3-n-pentadecylcatechol] as the compound, how does the IC50 (5-LO [1]) read?
Answer: 150 nM

Question: What about the “mechanism of 5-LO inhibition versus substrate AA” value (5-LO [1]) of the same compound?
Answer: not competitive

Question: What about the “AA concentration at which maximal inhibitory potency was reached” value (5-LO [1]) of the same compound?
Answer: 2500 nM

Question: And the IC50 (5-LO [2])?
Answer: 2740 nM

Question: What about the “A23187-induced 5-LO translocation / colocalization with FLAP” value (5-LO/FLAP) of the same compound?
Answer: not successful

Question: And the “intracellular Ca2+ concentrations” value (intracellular Ca2+)?
Answer: Neither CS nor CI caused significant changes
